One assay deals with MCF12A. Put plainly: Cell proliferation assay, MCF12A. Type of assay: cell-based. As to conditions: Homo sapiens, MCF-12A, type BaB, 72 h. As to the method:
(§1) The cells were seeded at 5×10^3 to 1.5×10^4 cells (depending on cell type) in each well of a 96-well plate in 100 μL of fresh culture medium and adherent cells were allowed to attach overnight. The stock solutions of the compounds were diluted in cell culture medium to obtain eight concentrations of each drug, ranging from 1 nM to 30 μM and DMSO at less than 1% v/v was used as a negative control. The resulting drug solutions were transferred onto the cells. After 72 h of treatment, 20 μl of CellTiter 96® AQueous reagent was added into each well of the 96-well assay plates and the plate was incubated at 37° C. for 1-4 hours in a humidified, 5% CO2 atmosphere. Then the absorbance of each well was recorded at 490 nm using a 96-well plate reader. In most cases, the assay was performed in triplicate and the results were presented as half maximal inhibitory concentration (IC50).

The test system of the next assay is MDA-MB-468 cells. In words: Long-term growth assay, MDA-MB-468. Type of assay: cell-based. As to conditions: MDA-MB-468, 1 μM, 10 days, crystal violet. An excerpt:
At the end of the assay, media was removed from the cells and the remaining cells were stained with crystal violet.

In another assay the test system is ZR7530. In words: Cell proliferation assay, ZR7530. The format is cell-based. As to conditions: Homo sapiens, ZR-75-30; ZR7530, type Lu/HER+, 72 h. As to the method:
as §1

Another assay deals with HS578T TNBC cells. In words: Apoptosis marker immunoblot, HS578T. Type of assay: cell-based. The following applies: 0 to 10 μM, 24 hours. As to the method:
MDA-MB-468 TNBC, DU4475 and HS578T TNBC cells were exposed to concentrations of Compound 1-3 ranging from 0 to 10 μM for 24 hours. After 24 hours, whole protein cell extracts were run on immunoblots and were exposed to antibodies against the proteins indicated in FIGS. 2A-2C.
Background: In western blotting, separated proteins are transferred to a membrane and probed.

In another assay the test system is BT-549. In words: Cell proliferation assay, BT-549. Type of assay: cell-based. As to conditions: Homo sapiens; BT-549, type BaB, 72 h. As to the method: as §1
The subject of another assay is HS578T. In words: Cell proliferation assay, HS578T. The format is cell-based. The following applies: Homo sapiens, Hs-578T, type BaB, 72 h. As to the method: as §1
Assay [1] relates to PMA-induced male BALB/c psoriatic mice. The format is in vivo. The following applies: 10 mg/kg oral, M-W-F. As to the method: BALB/c mice were housed in individually ventilated cages in a controlled environment (temperature 22±1° C., humidity 70±5%, and 12 h light/12 h dark cycle) in the animal facility. The mice had access to commercially available feed pellets and UV-treated potable water ad libitum. 4 mice were housed per individually ventilated cage. Each animal in the cage was identified by a tail. 8 mice per group mice were randomized into different treatment groups according to body weight. Following randomization the mean body weight for all groups was equivalent. Study design was Group 1: Naïve, 1% DMSO vehicle (10-30 ul, topical once daily), Group 2: PMA, 1% DMSO vehicle (10-30 ul, topical once daily), Group 3: PMA, 1-4 10 mg/kg in PVP/Pluronics (oral, M-W-F; Day 1-Day 3-Day 5-Day 7), Group 4: PMA, 0.1% betamethasone—25 mg (reference standard) (topical once daily)
4 ug Phorbol 12-myristate 13-acetate (PMA) in 20 uL of acetone was applied every day to mouse ears. Starting from Day 2, PMA-induction of dermal inflammation/psoriasis manifested with increases in clinical disease activity index associated with increased thickness of ear, scaling of ear-skin, and folding of ear-skin. The following parameters were evaluated: (i) the thickness of the ear, (ii) scaling on the skin of ear. This will be based on a scoring index—0, no scaling; 1, mild scaling; 2, moderate scaling; 3, severe scaling. […]

Another assay has as its system Zucker rats. The format is in vivo. The following applies: orally administered at 0.625, 1.25 and 2.5 mg/kg. As to the method: For novel object recognition test, Zucker rats were placed into a test chamber (dimension 26″×18″×18″; L×W×H). Food and water was not be permitted during the test. The test had 3 phases: a) Familiarisation phase: Rats were singly placed in test chamber and allowed to freely explore for 60 min. The distance travelled by the animal during this phase was recorded using tracking software (AnyMaze system). The purpose of this phase was to familiarise the animals to the test apparatus. […] The distance travelled by the animal during this sample phase was automatically recorded, as well as the time spent by the animal interacting with the novel objects, using a tracking software system and visual observation. […] The distance travelled by the animal during the test phase was automatically recorded, as well as the time spent by the animal interacting with the novel and familiar objects, using a tracking software system and visual observation. Object interaction scores during both the sample and test phase were independently recorded by 2 observers. The final score represents the difference score between each reading. […]

The results in this text go back to patent publication US12291508B2, “Hydrazide containing nuclear transport modulators and uses thereof” (Karyopharm Therapeutics Inc., priority 2011, dated 2025).

SMILES strings stand for the structures. Structures can show the parent of a compound that is named as a salt.

By IC50 is commonly meant the point on the concentration scale where inhibition reaches its midpoint.

For the molecule `O=C(/C=C\n1cnc(-c2cc(C(F)(F)F)cc(C(F)(F)F)c2)n1)NNc1cnccn1` [Compound I-3, (Z)-3-(3-(3,5-bis(trifluoromethyl)phenyl)-1H-1,2,4-triazol-1-yl)-N′-(pyrazin-2-yl)acrylohydrazide], the IC50 in the assay on MCF12A stood at 150 nM; with ZR7530 it was 19000 nM; in the assay with BT-549 it was 20 nM; with HS578T, 1500 nM. Besides, the long-term growth result with MDA-MB-468 cells is “inhibited the long-term growth”. Further, the “apoptosis (cleaved PARP, cleaved caspase 3)” value in the assay with HS578T TNBC cells was “only a negligible increase in cleaved PARP and cleaved caspase 3”.
As to `O=C(/C=C\n1cnc(-c2cc(C(F)(F)F)cc(C(F)(F)F)c2)n1)NNc1ccccn1` [Compound I-4, (Z)-3-(3-(3,5-bis(trifluoromethyl)phenyl)-1H-1,2,4-triazol-1-yl)-N′-(pyridin-2-yl)acrylohydrazide hydrochloride], the “efficacy relative to positive control betamethasone” value in assay [1] is listed as “comparable to positive control betamethasone”. Also, the mean ear thickness entry in assay [1] (compared to vehicle) is listed as “reduced mean ear thickness in a statistically significant manner”. Moreover, in the assay on Zucker rats, the “novel object recognition (object preference)” value is “induced trends of improved novel object recognition”.
